Experimental data from patent publication US10052320B2, “Substituted quinoxalines as FGFR kinase inhibitors” (ASTEX THERAPEUTICS LIMITED, priority 2011, dated 2018).

Tests used:
Type in all cases: cell-based
[1] = system: Ba/F3-Flt3-transfected cells in the presence of 10 ng/ml murine IL3; assay: Ba/F3-Flt3 (plus IL3) cellular proliferation counterscreen, Alamar Blue; conditions: Mus musculus; plus 10 ng/ml murine IL3; read-out: BAF3-FLT3 (PLUS IL3) 384 well pIC50 (converted)
[2] = molecular target: T1, Ba/F3-Flt3-transfected cells (Homo sapiens, UniProt P36888, cells depend on it, form not given); assay: Ba/F3-Flt3 (minus IL3) cellular proliferation assay, Alamar Blue; conditions: minus IL3
T1 sequence (P36888 1-993): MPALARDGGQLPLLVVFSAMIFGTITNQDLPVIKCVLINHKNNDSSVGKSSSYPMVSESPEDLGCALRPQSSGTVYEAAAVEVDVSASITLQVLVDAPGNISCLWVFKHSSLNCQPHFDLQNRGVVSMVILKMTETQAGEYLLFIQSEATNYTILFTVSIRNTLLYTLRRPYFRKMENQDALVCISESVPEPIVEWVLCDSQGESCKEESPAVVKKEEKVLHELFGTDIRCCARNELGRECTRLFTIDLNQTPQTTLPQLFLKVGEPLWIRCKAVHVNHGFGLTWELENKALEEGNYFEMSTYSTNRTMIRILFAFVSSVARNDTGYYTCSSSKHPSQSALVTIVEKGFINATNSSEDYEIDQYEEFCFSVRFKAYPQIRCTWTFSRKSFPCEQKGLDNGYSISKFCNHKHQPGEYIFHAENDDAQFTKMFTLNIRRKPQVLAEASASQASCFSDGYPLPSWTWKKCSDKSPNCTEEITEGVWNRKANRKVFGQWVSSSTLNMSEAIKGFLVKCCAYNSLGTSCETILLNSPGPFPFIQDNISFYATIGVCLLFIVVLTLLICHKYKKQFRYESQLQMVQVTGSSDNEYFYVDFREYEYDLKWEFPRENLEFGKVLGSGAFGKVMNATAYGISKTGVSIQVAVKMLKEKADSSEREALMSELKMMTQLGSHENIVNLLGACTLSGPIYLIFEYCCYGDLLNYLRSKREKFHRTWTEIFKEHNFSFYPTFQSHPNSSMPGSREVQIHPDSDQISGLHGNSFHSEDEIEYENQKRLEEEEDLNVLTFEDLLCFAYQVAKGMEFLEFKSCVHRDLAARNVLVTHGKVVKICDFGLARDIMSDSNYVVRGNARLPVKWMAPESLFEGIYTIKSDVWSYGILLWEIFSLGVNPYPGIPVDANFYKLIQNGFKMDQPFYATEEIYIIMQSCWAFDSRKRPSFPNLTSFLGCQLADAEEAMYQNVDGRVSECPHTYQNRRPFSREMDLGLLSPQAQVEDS

[3] = molecular target: Ba/F3-KDR-transfected cells (Homo sapiens, UniProt P35968); assay: Ba/F3-KDR (minus IL3) cellular proliferation assay, Alamar Blue; conditions: minus IL3
Summary of the method: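 24 h compound exposure, Ba/F3-KDR cells, 20000/well (384-well) or 10000/well (96-well), 37 °C/5% CO2; resazurin 4 h; RFU ex540/em590. IL3 counterscreen: plus 10 ng/ml murine IL3.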

Ba/F3-KDR-transfected cells, sequence (P35968 whole entry, change not shown): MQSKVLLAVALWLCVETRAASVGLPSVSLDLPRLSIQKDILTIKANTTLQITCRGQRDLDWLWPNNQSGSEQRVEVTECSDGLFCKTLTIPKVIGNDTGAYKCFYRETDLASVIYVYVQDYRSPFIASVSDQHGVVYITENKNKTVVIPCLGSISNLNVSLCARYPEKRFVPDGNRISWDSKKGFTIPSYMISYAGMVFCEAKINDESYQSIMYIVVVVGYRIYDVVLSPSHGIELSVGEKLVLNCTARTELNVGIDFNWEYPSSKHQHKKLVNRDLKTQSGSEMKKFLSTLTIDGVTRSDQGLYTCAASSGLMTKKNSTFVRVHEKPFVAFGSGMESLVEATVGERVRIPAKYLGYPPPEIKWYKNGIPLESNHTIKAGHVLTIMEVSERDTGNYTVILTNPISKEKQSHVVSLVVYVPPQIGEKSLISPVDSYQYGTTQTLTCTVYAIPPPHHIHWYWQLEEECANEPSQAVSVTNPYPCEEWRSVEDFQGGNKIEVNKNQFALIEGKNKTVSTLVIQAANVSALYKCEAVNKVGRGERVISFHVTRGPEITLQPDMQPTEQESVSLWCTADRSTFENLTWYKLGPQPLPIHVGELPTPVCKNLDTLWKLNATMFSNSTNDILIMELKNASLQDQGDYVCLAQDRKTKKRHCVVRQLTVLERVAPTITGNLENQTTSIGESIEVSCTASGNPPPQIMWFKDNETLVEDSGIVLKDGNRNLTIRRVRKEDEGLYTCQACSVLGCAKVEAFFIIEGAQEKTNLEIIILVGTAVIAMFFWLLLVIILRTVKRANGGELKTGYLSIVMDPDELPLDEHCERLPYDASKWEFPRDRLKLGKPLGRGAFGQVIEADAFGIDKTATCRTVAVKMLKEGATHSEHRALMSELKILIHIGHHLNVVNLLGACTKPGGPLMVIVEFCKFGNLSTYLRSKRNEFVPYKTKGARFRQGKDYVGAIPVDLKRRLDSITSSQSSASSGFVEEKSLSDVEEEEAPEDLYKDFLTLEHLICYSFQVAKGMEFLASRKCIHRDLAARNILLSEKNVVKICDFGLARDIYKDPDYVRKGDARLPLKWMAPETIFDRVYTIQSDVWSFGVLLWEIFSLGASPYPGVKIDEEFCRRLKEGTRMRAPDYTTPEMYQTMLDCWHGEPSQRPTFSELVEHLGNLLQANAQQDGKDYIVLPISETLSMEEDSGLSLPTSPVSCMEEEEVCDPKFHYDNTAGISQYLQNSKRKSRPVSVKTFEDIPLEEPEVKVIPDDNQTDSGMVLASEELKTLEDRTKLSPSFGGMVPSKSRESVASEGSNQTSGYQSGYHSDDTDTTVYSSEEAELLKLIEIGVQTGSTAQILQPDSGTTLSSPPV

Row | BAF3-FLT3 (MIN IL3) 96 well pIC50 [2] | BAF3-FLT3 (MIN IL3) 384 well pIC50 [2] | BAF3-KDR (MIN IL3) 96 well pIC50 [3] | BAF3-KDR (MIN IL3) 384 well pIC50 [3] | SMILES | IC50 [1]
1 | <5 | <5 | <5 | <5 | COc1cc(OC)cc(N(CC2CC2)c2ccc3ncc(-c4cc[nH]c4)nc3c2)c1 [Compound 36] | > 10 µM
2 | – | 5.02 | – | 5.35 | CNC(=O)c1cc(-c2cnc3ccc(N(CCNC(C)C)c4cc(OC)cc(OC)c4)cc3n2)ccn1 [Compound 14] | > 10 µM
